Test results as given in patent US20130053435A1, “Methods of Treating Alcohol Intoxication, Alcohol Use Disorders and Alcohol Abuse Which Comprises the Administration of Dihydromyricetin” (priority 2011, published 2013).

System: T1, GABAARs
T1 construct: rows headed: effect on GABAAR-currents; effect on GABAAR-currents; other: zolpidem 0.3 μM, DGCs of EtOH group
Test: Whole-cell patch-clamp, DGCs in hippocampal slices 48 hr after in vivo treatment
Format: cell-based, rat
Conditions: zolpidem 0.3 μM
Experimental: Transverse slices (400 μm) of dorsal hippocampus were obtained with a Vibratome (VT 100, Technical Products International, St. Louis, Mo.) and standard techniques known in the art. Slices were continuously perfused with artificial cerebrospinal fluid (ACSF). See Liang, J., et al. (2007) J Neurosci 27:12367-12377.
Whole-cell patch-clamp recordings were obtained at 34±0.5° C. from cells located in the DG layer at a holding potential of −70 mV, during perfusion with artificial cerebrospinal fluid (ACSF, 125 mM NaCl, 2.5 mM KCl, 2 mM CaCl2, 2 mM MgCl2, 26 mM NaHCO3, and 10 mM D-glucose). The ACSF was continuously bubbled with 95% O2-5% CO2 to ensure adequate oxygenation of slices and a pH of 7.4. Patch electrodes were pulled from thin-wall borosilicate glass pipettes with resistances of 7.5-9 MΩ and were filled with pipette solution (i.e. 137 mM CsCl, 2 mM MgCl2, 1 mM CaCl2, 11 mM EGTA, 10 mM HEPES and 3 mM ATP, pH adjusted to 7.30 with CsOH). Signals were recorded in voltage-clamp mode with a […] amplifier (Molecular Devices, Sunnyvale, Calif.). Whole cell access resistances were in the range of <25 MΩ before electrical compensation by about 70%. During voltage-clamp recordings, access resistance was monitored by measuring the size of the capacitative transient in response to a 5 mV step command and the data were abandoned if changes >20% were encountered. At least 10 min was allowed for equilibration of the pipette solution with the intracellular milieu before commencing mIPSC recordings. Intracellular signal was low-pass filtered at 3 kHz and data were acquired with Digidata 1440A and software CLAMPEX 10 (Molecular Devices) at a sampling frequency of 20 kHz.
Pharmacologically-isolated GABAAR-mediated mIPSCs were recorded as previously described (Liang (2007) and Shen (2011)). […] Data were analyzed using the Clampfit (Version 9.0, Molecular Devices) and the MiniAnalysis Program (versions 6.0.7, Synaptosoft, Decatur, Ga.).
The MiniAnalysis program (Synaptosoft, Decatur, Ga.) was used to analyze mIPSCs. Itonic is the averaged baseline currents of a given recording period. Itonic amplitude was calculated as the difference between the holding currents measured before and after picrotoxin (100 μM) or bicuculline (10 μM). See Wei, W., et al. (2004) J Neurosci 24, 8379-8382; Liang (2007); and Shen (2011). Briefly, the recordings were low-pass filtered off-line (Clampfit software) at 2 kHz. The mIPSCs were detected (Mini Analysis Program, version 6.0.7) with threshold criteria of 8 pA amplitude and 20 pA*ms charge transfer. The frequency of mIPSCs was determined from all automatically detected events in a given 100 s recording period. For kinetic analysis, only single event mIPSCs with a stable baseline, sharp rising phase (10 to 90% rise time), and exponential decay were chosen during visual inspection of the recording trace. Double and multiple peak mIPSCs were excluded. At least 100 individual mIPSC events were recorded under each experimental condition. The mIPSC kinetics was obtained from analysis of the averaged chosen single events aligned with half rise time in each cell. Decay time constants were obtained by fitting a double exponential to the falling phase of the averaged mIPSCs. Itonic magnitudes were obtained from the averaged baseline current of a given recording period. Itonic amplitude was calculated as the difference between the holding currents measured before and after the application of picrotoxin (50 μM) or bicuculline (10 μM). See Liang J et al (2007); Shen (2011); Hamann (2002); and Mangan P S, et al. (2005) Mol Pharmacol 67(3):775-788. The investigator performing the recordings and mIPSC analysis was blind to the treatment (vehicle, EtOH, E+D, or D) that the rats received.
After 48 hr withdrawal, whole-cell GABAAR-mediated currents were recorded on DGCs in hippocampal slices. In the vehicle group, bath application of EtOH (60 mM) enhanced Itonic from 28.8±3.1 to 62.1±3.3 pA (FIG. 13, panels A, G). […]

For `Cc1ccc(-c2nc3ccc(C)cn3c2CC(=O)N(C)C)cc1` [Zolpidem, zolpidem, reference compound], the “effect on GABAAR-currents” value (DGCs of DHM group as in vehicle group) was “potentiation” and the “effect on GABAAR-currents” value (DGCs of EtOH group) was “did not affect GABAAR-currents”.
